The target of one test is T1, DnaA (wild-type DnaA) (Escherichia coli, UniProt P03004).
T1 construct: full-length wild-type DnaA, overproduced from pKA234 (arabinose-inducible pING derivative) in E. coli KA450 and purified; no tag mentioned
T1 sequence (P03004 1-467): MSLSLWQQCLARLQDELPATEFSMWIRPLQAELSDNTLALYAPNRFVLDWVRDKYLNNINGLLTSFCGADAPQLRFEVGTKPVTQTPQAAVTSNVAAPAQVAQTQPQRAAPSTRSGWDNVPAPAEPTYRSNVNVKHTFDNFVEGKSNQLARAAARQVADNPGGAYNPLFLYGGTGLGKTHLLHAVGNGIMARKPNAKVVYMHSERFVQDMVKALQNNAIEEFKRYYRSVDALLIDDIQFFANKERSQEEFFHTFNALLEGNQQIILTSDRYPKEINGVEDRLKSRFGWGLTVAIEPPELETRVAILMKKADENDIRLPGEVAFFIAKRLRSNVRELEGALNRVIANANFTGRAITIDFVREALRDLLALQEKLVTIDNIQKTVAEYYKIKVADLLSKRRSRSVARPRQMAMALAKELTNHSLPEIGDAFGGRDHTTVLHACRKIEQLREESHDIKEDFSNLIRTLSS
In words: nucleotide binding to purified DnaA (method not described). The text has this: (§1) nucleotide binding to purified DnaA (method not described) on DnaA (wild-type DnaA)

The next test has as its target T2, DnaA (Escherichia coli, UniProt P03004, H136A).
T2 construct: full-length wild-type DnaA, overproduced from pKA234 (arabinose-inducible pING derivative) in E. coli KA450 and purified; no tag mentioned
T2 sequence (P03004 1-467 H136A): T1 sequence (P03004 1-467) with H136A
The test is described as above.
Source text: as §1

In test [1] the target is T3, DnaB replicative helicase (E. coli, UniProt P0ACB0 1-471).
T3 construct: DnaB replicative helicase, Escherichia coli; No tag is named for the DnaB of the bio-oriC pull-down; The Form I* assay used His-DnaB and the His-DnaB pull-down used His-DnaB K236A; these forms are named in the readout of the functional rows; also called DnaB helicase
In words: pull-down; biotinylated oriC DNA (bio-oriC, 419 bp, 0.1 pmol) incubated on ice for 10 min with 5 pmol ATP-DnaA and different amounts of DnaB in buffer G (20 mM HEPES-KOH pH 7.6, 5 mM magnesium acetate, 1 mM EDTA, 10% glycerol, 0.1% Triton X-100, 4 mM DTT) with 1 mM ATP; recovered with streptavidin-coated beads; washed once with buffer G without KCl; silver staining with quantitative standards; no DnaC. The conditions noted are these: both partners purified.

This is an account of results in article PMC6127211, “The DnaA AAA+ Domain His136 Residue Directs DnaB Replicative Helicase to the Unwound Region of the Replication Origin, oriC” (Frontiers in Microbiology, 2018).

Where a chain is given by its changes, count along the chain named. Names and notes keep the numbering of the source. Like-named read-outs stand apart in the source and are kept apart here.

On to `Nc1ncnc2c1ncn2[C@@H]1O[C@H](COP(=O)(O)OP(=O)(O)O)[C@@H](O)[C@H]1O` [ADP], for which the Kd on DnaA (wild-type DnaA) (read-out: KD (nM) / ADP) was found to be 35 nM; at DnaA (read-out: KD (nM) / ADP), 50 nM.

As for `Nc1ncnc2c1ncn2[C@@H]1O[C@H](COP(=O)(O)OP(=O)(O)OP(=O)(O)O)[C@@H](O)[C@H]1O` [ATP], the Kd on DnaA (wild-type DnaA) (read-out: KD (nM) / ATP) is 24 nM; at DnaA (read-out: KD (nM) / ATP) it was 21 nM.

B1: wild-type DnaA (natural protein, E. coli, UniProt P03004 1-467, looked up)
chain: T1 sequence (P03004 1-467)
notes: DnaA, chromosomal replication initiator protein, Escherichia coli; wild-type dnaA-coding region of pKA234; also called WT; ATP-DnaA; source: E. coli KA450, overproduced from pKA234, purified
On to B1, for which the binding result in test [1] is listed as “binds”.

B2: DnaA H136A (natural protein, E. coli, UniProt P03004 1-467, looked up)
chain: T1 sequence (P03004 1-467) with H136A
notes: DnaA, Escherichia coli, with the substitution H136A in domain III; pH136A is a derivative of pKA234; also called DnaA H136A mutant protein; source: E. coli KA450, overproduced from pH136A, purified
As to B2, the binding result in test [1] is “binds”.
